Test results: patent US10807994B2, “Heterocyclic compounds and uses thereof” (NUVATION BIO INC., priority 2017, dated 2020)
Where a name gives a salt, the structure may show the parent alone.

Assays:
WEE1 kinase enzyme = WEE1 kinase enzyme (Homo sapiens (Human), UniProt P30291); assay: WEE1 IC50 determination, LanthaScreen Terbium labeled TR-FRET kinase assay; format: biochemical; settings: WEE1 enzyme 1 nM
Experimental: IC50 values of compounds against WEE1 kinase enzyme were determined by LanthaScreen™ Terbium Labeled TR-FRET assay. Kinase assays were performed in 1× kinase buffer (# PV6135, Invitrogen, Life Technologies Grand Island, N.Y.) where total reaction volume was 10 μl in low-volume 384-well plates (#4511, Corning). Serially diluted compounds (3-fold) were incubated with WEE1 Enzyme (1 nM) (# PR7373A, Invitrogen, Life Technologies Grand Island, N.Y.) for 10 min, following which a mixture of ATP […] (# A1852, Sigma, St-Louis, Mo.) and fluorescent-PolyGT substrate (200 nM) (# PV3610, Invitrogen, Life Technologies Grand Island, N.Y.) was added and incubated in dark at room temperature for 1 h. After 1 h, 10 μl stop solution containing Terbium labeled antibody (4 nM) (# PV3529, Invitrogen, Life Technologies Grand Island, N.Y.) and EDTA (# E5134, Sigma, St-Louis, Mo.) (20 mM) in TR-FRET dilution buffer (# PV3574, Invitrogen, Life Technologies Grand Island, N.Y.) was added. Readings were taken in a Synergy Neo Plate reader (BioTek, Winooski) at single excitation of 340 nm and Dual emission at 495 nm and 520 nm respectively.
The % activity of test samples was calculated as (Sample−Min)*100/(Max−Min). [Max: DMSO control, complete reaction with enzyme & DMSO and Min: No enzyme & DMSO]. Percent inhibition (100-% activity) was fitted to the “four-parameter logistic model” in XLfit for determination of IC50 values.

A427 cells [1] = assay: Cell proliferation assay (Cell Titer-Glo), A427 cells; format: cell-based; settings: Homo sapiens, A-427, typically 72 hrs post-treatment
Experimental: (§1) The effects of test compounds were studied in five cell lines with various histotypes. The cancer cells (Table 4) were harvested during the logarithmic growth period and counted. Adjust cell concentrations to the appropriated number with respective medium, and add 90 μL cell suspensions to 96-well plates. After cells were seeded, the plates were shaken gently to distribute cells evenly and incubated at 37° C., 5% CO2 on day 1.
(§2) Cells were treated with test compounds at 9 concentrations within a desired concentration range (e.g. 1.5 nM-10 μM) on day 2 by series diluting the test compound stock solution (10 mM in DMSO) with culture medium. Cell viability was assessed by Cell Titer-Glo® as recommended by Promega (Cat. No.: G7572, Promega) typically 72 hrs post-treatment.
(§3) Cell viability data were plotted using GraphPad Prism (version 5, GraphPad Software, Inc., San Diego, Calif.). In addition, a nonlinear regression model with a sigmoidal dose response and variable slope within GraphPad Prism was used to calculate the IC50 value of individual test compounds.

A427 cells [2] = assay: Cytotoxicity assay (resazurin), A427 cells, 72 hr; format: cell-based; settings: Homo sapiens, A-427, read-out: Cell Viability A427 IC50
Experimental: (§4) A549 (CCL-185; ATCC) and A427 (HTB-53; ATCC), both lung epithelial cell lines were seeded in their respective medium (DMEM/MEM, 10569044/41090101; Gibco) at a cell count of 1500 cells per 100 μL per well in a 96 well edge plate (167425; ThermoFisher). Cells were allowed to grow at 37° C. for 24 hr in 5% CO2 environment (culture conditions) in a Nuaire incubator (humidified). Serially diluted test compounds (100 μL) within the desired testing concentration ranges were added to the culture plate were further incubated in culture conditions for 72 hr and 96 hr for A427 and A549 respectively. The experiment was terminated at the designated incubation time by replacing the medium with 100 μL of 1 mM of resazurin (R7017; Sigma) prepared in respective culture medium, and the plates were further incubated in culture conditions for 4-6 hr. Fluorescence was recorded using a multimodal plate reader (Biotek Synergy Neo) at an excitation wavelength of 535 nm and emission wavelength of 590 nm to obtain relative fluorescence units. Data analysis was done by subtracting the background fluorescence (only medium blank) value from each reading and then normalizing with the vehicle control (DMSO treated cells) to obtain percent survival/proliferation. Percent survival was then subtracted by 100 to get the percent inhibition of proliferation which was used to calculate IC50 values. Potency of compounds in other cell lines (As-Pc-1, Panc-10.05, MDAMB231, A172) was determined in an analogous manner.

A549 cells = assay: Cytotoxicity assay (resazurin), A549 cells, 96 hr; format: cell-based; settings: Homo sapiens, read-out: Cell Viability A549 IC50
Experimental: as §4

Panc-10.05 cells = assay: Cytotoxicity assay (resazurin), Panc-10.05 cells; format: cell-based; settings: Homo sapiens, Panc1005, read-out: Cell Viability Panc 10.05 IC50
Experimental: as §4

A172 cells = assay: Cytotoxicity assay (resazurin), A172 cells; format: cell-based; settings: Homo sapiens, A 172, read-out: Cell Viability A172 IC50
Experimental: as §4

MDAMB231 cells = assay: Cytotoxicity assay (resazurin), MDAMB231 cells; format: cell-based; settings: Homo sapiens, MDA-MB-231, read-out: Cell Viability MDAMB 231 IC50
Experimental: as §4

As-Pc-1 cells = assay: Cytotoxicity assay (resazurin), As-Pc-1 cells; format: cell-based; settings: Homo sapiens, ASPC1, read-out: Cell Viability AsPC-1 IC50
Experimental: as §4

A427 cells [3] = assay: Cell viability in combination with cisplatin in A427 cells (resazurin); format: cell-based; settings: Homo sapiens, A-427, 24 hr 2.5 μM cisplatin
Experimental: The activity of test compounds in combination with cisplatin in A427 cells was determined. Cells were seeded in a 96 well plate at 2000 cells/well. The next day, cells were treated with 2.5 μM cisplatin or vehicle (1×PBS) and incubated in culture conditions (37° C., 5% CO2) for 24 hr. Following the incubation, culture medium was replaced with medium containing test compound and cisplatin/vehicle, and cells were further incubated in culture conditions for another 72 hr. By this procedure, cisplatin was either continued or discontinued after an initial 24-hr incubation. Addition of test compound was in concentrations needed to obtain an 8-point dose response curve, with concentrations prepared by 3-fold dilution. The assay was terminated upon addition of resazurin, incubation for 4 hr in culture conditions and measurement of fluorescence at excitation and emission wavelengths of 535 and 590 nm, respectively.

A2780 cells = assay: Cell proliferation assay (Cell Titer-Glo), A2780 cells; format: cell-based; settings: Homo sapiens, typically 72 hrs post-treatment
Experimental: as §1, §2, §3

[4] = then compound + cisplatin 72 hr, read-out: Cell viability IC50 in A427 cells with 2.5 μM cisplatin: 24 hr cisplatin then compound + cisplatin
[5] = then compound alone 72 hr, read-out: Cell viability IC50 in A427 cells with 2.5 μM cisplatin: 24 hr cisplatin then compound

Chain of WEE1 kinase enzyme (P30291 whole entry): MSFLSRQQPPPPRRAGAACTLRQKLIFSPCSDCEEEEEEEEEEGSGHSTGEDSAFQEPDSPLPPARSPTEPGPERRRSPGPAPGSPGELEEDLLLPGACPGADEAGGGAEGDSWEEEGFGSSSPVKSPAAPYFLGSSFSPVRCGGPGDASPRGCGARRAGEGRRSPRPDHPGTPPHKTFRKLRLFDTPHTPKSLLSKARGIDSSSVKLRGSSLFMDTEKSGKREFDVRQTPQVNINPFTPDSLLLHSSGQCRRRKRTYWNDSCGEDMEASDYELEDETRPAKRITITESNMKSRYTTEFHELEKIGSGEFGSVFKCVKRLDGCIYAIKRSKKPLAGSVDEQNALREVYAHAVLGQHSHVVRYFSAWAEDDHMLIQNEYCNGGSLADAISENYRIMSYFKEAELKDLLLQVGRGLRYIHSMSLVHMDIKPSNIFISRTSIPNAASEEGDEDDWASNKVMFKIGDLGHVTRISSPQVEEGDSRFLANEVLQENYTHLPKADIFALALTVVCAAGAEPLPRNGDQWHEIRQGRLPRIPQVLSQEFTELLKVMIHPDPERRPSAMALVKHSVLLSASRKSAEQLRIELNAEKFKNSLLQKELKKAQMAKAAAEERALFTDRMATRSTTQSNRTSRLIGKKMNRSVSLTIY

Structure (SMILES) | IC50 (WEE1 kinase enzyme) [µM] | IC50 (A427 cells [1]) [µM] | IC50 (A427 cells [2]) [µM] | IC50 (A549 cells) [µM] | IC50 (Panc-10.05 cells) [µM] | IC50 (A172 cells) [µM] | IC50 (MDAMB231 cells) [µM] | IC50 (As-Pc-1 cells) [µM] | IC50 (A427 cells [3]; [4]) [µM] | IC50 (A427 cells [3]; [5]) [µM] | IC50 (A2780 cells) [µM]
O=C1c2cnc(Nc3ccc(N4CCNCC4)cc3)nc2OCN1c1c(Cl)cccc1Cl [Example 1.5] | 0.069 | 4.29 | 3.91 | 3.78 |  |  |  |  |  |  | 
O=C1c2cnc(Nc3ccc(C4CCNCC4)cc3)nc2OCN1c1c(Cl)cccc1Cl [Example 1.12] | 0.0735 | 3.43 | 3.58 | 4.7 | 3.17 | 7.13 | 9.04 | 7.88 |  |  | 
O=C1c2cnc(Nc3ccc(N4CCNCC4)c(CO)c3)nc2OCN1c1c(Cl)cccc1Cl [Example 1.16] | 0.049 | 3.04 | 2.13 | 3.98 |  |  |  |  | < 0.014 | 0.18 | 
CN1CCN(c2ccc(Nc3ncc4c(n3)OCN(c3c(Cl)cccc3Cl)C4=O)cc2CO)CC1 [Example 1.20] | 0.048 | 3.64 | 5.5 | 6.02 |  |  |  |  |  |  | 
O=C1c2cnc(Nc3ccc4c(c3)CNCC4)nc2OCN1c1c(Cl)cccc1Cl [Example 1.24] | 0.035 | 2.85 | 2.96 | 6.45 |  |  |  |  | 0.06 | 0.12 | 
O=C1c2cnc(Nc3ccc(N4CCNCC4)cc3)nc2OCN1c1c(F)cccc1Cl [Example 1.27] | 0.052 | 7.75 | 6.97 | 4.39 |  |  |  |  |  |  | 
C[C@@H]1CNCCN1c1ccc(Nc2ncc3c(n2)OCN(c2c(Cl)cccc2Cl)C3=O)cc1 [Example 1.49, (R)-3-(2,6-dichlorophenyl)-7-(4-(2-methylpiperazin-1-yl)phenylamino)-2H-pyrimido[5,4-e][1,3]oxazin-4(3H)-one] | 0.041 |  | 5.42 | 4.39 |  |  |  |  |  |  | 
COc1cc(Nc2ncc3c(n2)OCN(c2c(Cl)cccc2Cl)C3=O)ccc1C1CCNCC1 [Example 1.50, 3-(2,6-dichlorophenyl)-7-(3-methoxy-4-(piperidin-4-yl)phenylamino)-2H-pyrimido[5,4-e][1,3]oxazin-4(3H)-one] | 0.028 |  | 3.48 | 2.79 |  |  |  |  |  |  | 
O=C1c2cnc(Nc3ccc4c(c3)CNCC43CC3)nc2OCN1c1c(Cl)cccc1Cl [Example 1.51, 3-(2,6-dichlorophenyl)-7-(2′,3′-dihydro-1′H-spiro[cyclopropane-1,4′-isoquinoline]-7′-ylamino)-2H-pyrimido[5,4-e][1,3]oxazin-4(3H)-one] | 0.011 |  | 3.04 | 6.45 | 3.34 | 8 | 8.76 | 3.21 |  |  | 
CN1CCC(c2ccc(Nc3ncc4c(n3)OCN(c3c(Cl)cccc3Cl)C4=O)cc2)CC1 [Example 1.52, 3-(2,6-dichlorophenyl)-7-(4-(1-methylpiperidin-4-yl)phenylamino)-2H-pyrimido[5,4-e][1,3]oxazin-4(3H)-one] | 0.0505 |  | 3.35 | 4.72 |  |  |  |  |  |  | 
COc1cc(Nc2ncc3c(n2)OCN(c2c(Cl)cccc2Cl)C3=O)ccc1N1CCNCC1 [Example 1.53, 3-(2,6-dichlorophenyl)-7-(3-methoxy-4-(piperazin-1-yl)phenylamino)-2H-pyrimido[5,4-e][1,3]oxazin-4(3H)-one dihydrochloride] | 0.033 |  | 3.61 | 4.72 | 9.34 | 9.68 | 10.5 | 2.41 |  |  | 
CNCCNc1ccc(Nc2ncc3c(n2)OCN(c2c(Cl)cccc2Cl)C3=O)cc1 [Example 1.54, 3-(2,6-dichlorophenyl)-7-(4-(2-(methylamino)ethylamino)phenylamino)-2H-pyrimido[5,4-e][1,3]oxazin-4(3H)-one Hydrochloride] | 0.2 |  | 10.5 | 9.58 |  |  |  |  |  |  | 
N#Cc1cc(Nc2ncc3c(n2)OCN(c2c(Cl)cccc2Cl)C3=O)ccc1N1CCNCC1 [Example 1.55, 5-(3-(2,6-dichlorophenyl)-4-oxo-3,4-dihydro-2H-pyrimido[5,4-e][1,3]oxazin-7-ylamino)-2-(piperazin-1-yl)benzonitrile] | 0.106 |  | 2.32 | 1.59 |  |  |  |  | < 0.014 | 0.53 | 6.8
O=C1c2cnc(Nc3ccc(N4CCCC4)cc3)nc2OCN1c1c(Cl)cccc1Cl [Example 1.56, 3-(2,6-dichlorophenyl)-7-(4-(pyrrolidin-1-yl)phenylamino)-2H-pyrimido[5,4-e][1,3]oxazin-4(3H)-one] | > 5 |  | 10.5 | 1.86 |  |  |  |  |  |  | 
CNCC(=O)N1CCN(c2ccc(Nc3ncc4c(n3)OCN(c3c(Cl)cccc3Cl)C4=O)cc2)CC1 [Example 1.57, 3-(2,6-dichlorophenyl)-7-(4-(4-(2-(methylamino)acetyl)piperazin-1-yl)phenylamino)-2H-pyrimido[5,4-e][1,3]oxazin-4(3H)-one hydrochloride] | 0.101 |  | 4.86 | 6.23 |  |  |  |  |  |  | 
O=C1c2cnc(Nc3ccc(N4CCN(CCO)CC4)cc3)nc2OCN1c1c(Cl)cccc1Cl [Example 1.58, 3-(2,6-dichlorophenyl)-7-(4-(4-(2-hydroxyethyl)piperazin-1-yl)phenylamino)-2H-pyrimido[5,4-e][1,3]oxazin-4(3H)-one] | 0.234 |  | 7.12 | 12.3 |  |  |  |  |  |  | 
Cc1cc(Nc2ncc3c(n2)OCN(c2c(Cl)cccc2Cl)C3=O)ccc1C1CCNCC1 [Example 1.60] | 0.0435 |  | 2.58 | 8.34 | 2.85 | 4.8 | 5.34 | 2.91 |  |  | 
CC1(C)NCCc2cc(Nc3ncc4c(n3)OCN(c3c(Cl)cccc3Cl)C4=O)ccc21 [Example 1.227] | 0.021 |  | 2.2 | 9.04 | 4.93 | 6.62 | 8.78 | 2.94 |  |  | 
